# How the values were obtained:
# forearm blood flow = details: patients with diabetes or hypercholesterolemia but not normal subjects; cited from earlier work
# brachial artery = test: Study 2: brachial artery flow-mediated and nitroglycerin-mediated vasodilation; type: in vivo, human
# Protocol: Brachial artery endothelium-dependent and -independent function was measured using ultrasound, at baseline, after 8 weeks of BH4 treatment, and 1 week after discontinuation of therapy. The technique was carried out as described in Prasad et al., Circulation, 2000. 101(20): p. 2349-54. Briefly, using an 11 MHz high resolution ultrasound transducer (Acuson Inc) in a temperature-controlled room, brachial diameter was measured above the antecubital fossa in the non-dominant arm. Flow-mediated vasodilation (FMD) was measured by inflating a BP cuff on the forearm to >200 mm Hg for 5 minutes, deflating rapidly, and measuring brachial diameter at 1 minute after onset of hyperemia. For all measurements three diameters were measured on three separate end-diastolic frames and averaged. To obtain the maximal brachial artery dilation that represents FMD the following equation was used: (average diameter with hyperemia−average baseline diameter)÷average baseline diameter X 100. To measure the endothelium-independent vasodilator response, subjects were given sublingual nitroglycerin 0.4 mg and the brachial diameter was measured as above after 5 minutes. To obtain endothelium-independent vasodilation the following equation was used: (average diameter post nitroglycerin-average baseline diameter)÷average baseline diameter X 100. For both study 1 and study 2, the primary end point after statistical analysis was a reduction of systolic, mean and diastolic BP during BH4 therapy. Secondary end points included improvement of endothelial function as FMD. Linear mixed effects models for repeated measures data were used to analyze change in BP from baseline to end of treatment period and differences in change between 100 mg and 200 mg dose groups. A quadratic term for week was included in the model to account for non-linear trends over the treatment period. Dose, week and week squared were the main effect terms in the model; dose by week and dose by week squared were the interaction terms in the model. Significant interaction terms indicate a difference in the pattern of change between the two dose groups. FMD data was analyzed using the two-tailed student t-test. […] In study 2, brachial artery endothelium-dependent and independent function was measured, as described above, at the end of the 2-week vitamin C run-in period, at the end of 4 weeks of oral BH4 therapy, and 4 weeks after discontinuation of BH4.
# hypertensive patients [1] = test: Adverse events in Study 1 and Study 2 of oral BH4; type: in vivo, human; details: either study
# Source text: Subjects between the ages of 18 and 75 years were recruited if they had uncontrolled hypertension on traditional stable anti-hypertensive therapy (BP≧135/85), or newly diagnosed hypertension (BP≧140/90). Patients were continued on their current anti-hypertensive therapy which remained unchanged. The criteria for exclusion were: female subjects with childbearing potential, history of recently symptomatic coronary or peripheral vascular disease, known secondary causes for hypertension, severe uncontrolled hypertension (BP>180 mmHg systolic and/or 110 mmHg diastolic), severe co-morbid conditions which would limit life expectancy to less than 6 months, renal or hepatic dysfunction, alteration of any concomitant anti-hypertensive therapy within the last 6 weeks, and any bleeding disorders. BH4 powder was obtained from Schircks Laboratories (Jona, Switzerland). BH4 when administered with vitamin C was compounded with vitamin C at a ratio of 1 mg of vitamin C/1 mg BH4 into appropriate sized capsules. Subjects were advised to keep the pills in a freezer or refrigerator.
# Of the 20 subjects who qualified for participation, 4 were excluded during the run-in phase because of inability to return for follow-up appointments. There were 6 male subjects, mean age 59.5±8.3 years. […] Mean blood pressure was calculated as: (SBP+2×DBP)/3. […]
# coronary vessel = details: in vivo; cited from earlier work
# hypertensive patients [2] = test: Study 1: blood pressure and heart rate during 8 weeks of oral BH4; type: in vivo, human
# Protocol: Prior studies have used parenteral infusion of BH4 or a single oral dose; thus it was not known whether long-term oral BH4 over a period of days to weeks would result in a sustained improvement in endothelial dysfunction. […] Two studies were conducted to investigate the duration of action of oral BH4 and the response of hypertensive subjects to different doses of BH4. […] Patients were continued on their current anti-hypertensive therapy which remained unchanged. […] BH4 powder was obtained from Schircks Laboratories (Jona, Switzerland). BH4 when administered with vitamin C was compounded with vitamin C at a ratio of 1 mg of vitamin C/1 mg BH4 into appropriate sized capsules. Subjects were advised to keep the pills in a freezer or refrigerator. Eight subjects were recruited, 3 male, mean age 60.5±10.9 years. Subjects were assigned to one of two groups. One group received BH4 10 mg/kg/day (n=4) and the other group received 5 mg/kg/day (n=4) given in two divided doses orally for 8 weeks. These dosages were based on dosing of BH4 used in phenylketonuria. Weekly BP measurements were made throughout the treatment period, and at one week and 6 weeks after discontinuation. Mean blood pressure was calculated as: (SBP+2×DBP)/3. For both study 1 and study 2, the primary end point after statistical analysis was a reduction of systolic, mean and diastolic BP during BH4 therapy. Secondary end points included improvement of endothelial function as FMD. Linear mixed effects models for repeated measures data were used to analyze change in BP from baseline to end of treatment period and differences in change between 100 mg and 200 mg dose groups. A quadratic term for week was included in the model to account for non-linear trends over the treatment period. Dose, week and week squared were the main effect terms in the model; dose by week and dose by week squared were the interaction terms in the model. Significant interaction terms indicate a difference in the pattern of change between the two dose groups. FMD data was analyzed using the two-tailed student t-test.
structure (smiles),measurement,setting,value
"C[C@H](O)[C@H](O)[C@H]1CNc2nc(N)[nH]c(=O)c2N1 [BH4, tetrahydrobiopterin]",NO-mediated effects on forearm blood flow,forearm blood flow,augment
same,FMD,"brachial artery; Study 2, 100 mg b.i.d., after therapy, 5.3±2.5% before, p=0.55, no significant change",6.2±3.5%
same,FMD,"brachial artery; Study 2, 200 mg b.i.d., after 4 weeks of therapy, 3.7±3% at start, p=0.016, n=7",7.1±4.9%
same,FMD,"brachial artery; Study 2, 200 mg b.i.d., one month after discontinuation, p=0.6 compared to baseline",3.2±1.1%
same,"change in nitroglycerin-mediated, endothelium-independent vasodilation","brachial artery; Study 2, either group",no significant change
same,adverse events,hypertensive patients [1],no significant adverse events
same,coronary vessel flow,coronary vessel,increased
same,change in diastolic BP,hypertensive patients [2]; Study 1,did not reach statistical significance
same,change in heart rate with BH4,hypertensive patients [2]; Study 1,no significant change
same,differences between the 5 mg/kg and 10 mg/kg doses of BH4,hypertensive patients [2]; Study 1,no statistically significant differences
same,BP after discontinuation of therapy,"hypertensive patients [2]; Study 1, 6 weeks after discontinuation, p=ns compared to baseline",returned toward pre-treatment levels
same,systolic BP lower by a mean of,"hypertensive patients [2]; Study 1, after 3 weeks, p=0.004",13±9 mmHg
same,systolic BP lower by a mean of,"hypertensive patients [2]; Study 1, after 5 weeks, p=0.04, persisted for the 8 weeks of treatment",15±15 mmHg
same,reduction in systolic BP with BH4,"hypertensive patients [2]; Study 1, combined group (5 and 10 mg/kg/day oral, two divided doses, 8 weeks), p=0.005 quadratic trend",significant reduction
same,reduction in mean arterial BP with BH4,"hypertensive patients [2]; Study 1, combined group, 8 weeks, p=0.01",significant reduction
same,duration for which BP reduction was sustained,"hypertensive patients [2]; continuous therapy, without tachyphylaxis",up to 8 weeks

# Reference: patent US20090018136A1, “METHODS AND COMPOSITIONS FOR THE TREATMENT OF VASCULAR DISEASE” (priority 2005, published 2009)
